Values quoted from earlier work in patent US12234263B2, “Influenza vaccines” (InvVax, Inc., priority 2016, dated 2025).

System: CD8 T-cell
Settings: BALB/C; worldwideweb.fludb.org

TYQRTRALV [SEQ ID NO: 37]
experimentally validated CD8 T-cell epitope: experimentally validated BALB/C influenza A virus CD8 T-cell epitope
